Experimental findings from patent US20040023991A1, “Use of pyrazolo[4,3-d]pyrimidines” (priority 2000, published 2004) are described below.

One may read the melting point as the temperature, or range, at which the solid turns liquid. `CCCc1nn(C)c2c(NCc3ccc(OC)c(Cl)c3)nc(CCC(=O)O)nc12` [Example 2, 3-[7-(3-chloro-4-methoxybenzylamino)-1-methyl-3-propyl-1H-pyrazolo[4,3-d]pyrimidin-5-yl]propionic acid] yielded a melting point of 178 °C.
